{
  "source": "patent US10245229B2",
  "about": "“Pulmonary delivery of mRNA to non-lung target cells” (Shire Human Genetic Therapies, Inc., priority 2012, dated 2019)",
  "system": "non-lung cells",
  "assay": "Comparison of delivery vehicles: luminescence in non-lung cells following pulmonary delivery",
  "assay_type": "in vivo",
  "settings": "following pulmonary delivery of FFL mRNA with the delivery vehicle",
  "data": [
    {"smiles": "CCCCCCCC/C=C\\CCCCCCCC(=O)OCC(C[N+](C)(C)C)OC(=O)CCCCCCC/C=C\\CCCCCCCC", "note": "(stereo not shown) [DOTAP, 1,2-Dioleoyl-3-Trimethylammonium-Propane]", "values": [
      {"measurement": "Luminescence / protein production in non-lung cells", "value": "did not show luminescence in non-lung cells"}
    ]}
  ]
}
